Measured values published in patent US5393747A, “Substituted dibenzoxazepine compounds for the treatment of convulsions, ischemia and other diseases responsive to prostaglandin-E2 antagonists” (G. D. Searle & Co., priority 1993, dated 1995).
Entries after “also recorded” stand apart in the source; their conditions may differ. Like-named read-outs stand apart in the source and are kept apart here.

How the values were obtained:
[1] = molecular target: T1, prostaglandin E2-induced contractions of segments of guinea pig ileum (Cavia porcellus, UniProt A0A286XHJ6); experiment: Prostaglandin (PGE) Antagonism Assay in guinea pig ileum; parameters: key to PGE antagonism in guinea pig ileum, activity: Active: A concentration of test compound was determined to be "active" if it produced a dose ratio significantly greater than that obtained in a series of blank treatments; conditions: for Kb: Schild plot, guinea pig ileum, 37° C., read-out: PGE antagonism in guinea pig ileum (pA2) (converted); for PGE antagonism in guinea pig ileum, activity: initial concentration of test compound
T1 construct: The ileums were then quickly removed from the guinea pigs; from tissue; host or cells: guinea pig ileum segments (male albino guinea pigs)
T1 sequence (A0A286XHJ6 1-405): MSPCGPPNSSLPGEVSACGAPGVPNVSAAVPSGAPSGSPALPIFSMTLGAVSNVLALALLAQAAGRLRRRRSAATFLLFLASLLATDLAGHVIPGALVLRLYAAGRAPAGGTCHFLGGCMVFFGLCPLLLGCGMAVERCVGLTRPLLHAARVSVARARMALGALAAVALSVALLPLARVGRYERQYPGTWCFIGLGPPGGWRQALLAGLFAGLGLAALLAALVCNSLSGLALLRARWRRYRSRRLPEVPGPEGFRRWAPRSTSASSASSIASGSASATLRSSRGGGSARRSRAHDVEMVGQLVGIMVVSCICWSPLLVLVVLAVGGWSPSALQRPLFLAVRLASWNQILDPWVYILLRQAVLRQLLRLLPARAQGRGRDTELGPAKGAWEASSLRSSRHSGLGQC
Protocol: In order to determine the effectiveness of several of the compounds of the present invention ("test compounds") as prostaglandin E2 antagonists,a prostaglandin antagonism assay was conducted, as described below, to determine the ability of these compounds to inhibit prostaglandin E2 -induced contractions of segments of guinea pig ileum.
Male albino guinea pigs weighing 200 to 500 grams were sacrificed by cervical dislocation.
The ileums were then quickly removed from the guinea pigs and placed in a modified Tyrode solution, a solution which is known to those of skill in the art, containing one-half of the usual amount of magnesium ions.
Segments of ileum about 2 cm long were then cut and mounted in a 10-mL tissue bath containing the modified Tyrode solution. The solution was maintained at 37° C. and aerated with a gaseous mixture of 95% oxygen and 5% carbon dioxide.
Submaximal contractions of the ileum segments were then generated by injecting prostaglandin E2 into the bath, and detected isotonically. Data for a control prostaglandin E2 dose response curve plotting concentration of prostaglandin E2 versus number of contractions generated was then obtained by experimentally adjusting the dose of the prostaglandin E2 being injected into the tissue bath, in a manner known by those of skill in the art.
Solutions or suspensions containing an initial amount of a test compound in modified Tyrode solution ("test solutions/suspensions") were then separately substituted for the tissue bath. Each test solution/suspension was then kept in constant contact with the ileum tissue, except for brief periods to drain the bath in preparation for rinsing with fresh test solution/suspension. Different doses of prostaglandin E2 were again injected into the test solutions/suspensions.
A second prostaglandin E2 dose response curve was then generated for PGE2 in the presence of a test compound.
A dose ratio of EC50 doses (that dose of a compound or drug which is necessary to elicit a 50% maximal biological response and, thus, which is necessary to elicit a 50% reduction in the contractions of the guinea pig ileum segments in this assay) was then calculated from the results of each test in a manner known by those of skill in the art. […] Duplicate tests were conducted on each concentration of test compound.
If the initial concentration of a test compound was determined to be "active," then varying concentrations of the test compound were then assayed. As is shown in Table I below, all test compounds analyzed in this assay were determined to be "active" as prostaglandin E2 antagonists at the initial concentration.
The pA2 value (a statistical constant which is a common measure of expressing the potency of a particular drug as a competitive antagonist) was then calculated for each test compound by schild plot calculations, as described by H. O. Schild, "pA, A New Scale for the Measurement of Drug Antagonism," Br. J. Pharmacol, 2, 189 (1947), according to the following mathematical formula: […]
to quantitate the effectiveness of the test compounds as prostaglandin E2 antagonists.
The compounds of the present invention which were tested in this assay, and for which results are presented in Table I, correspond to the particular examples specified in Table I.

mice = experiment: Writhing Assay (PBQ-induced writhing, analgesic activity); type: in vivo, mouse (Charles River male albino); conditions: for rank order of potency in the Writhing Assay: more potent compounds of the invention
From the text: The Writhing Assay is one of the most widely-used experimental procedures for measuring the analgesic activity of different narcotic and nonnarcotic analgesic agents, and involves the continuous, chemically-induced pain of visceral origin to an animal, such as a mouse or rat. [Gyires et al., Arch. int. Pharmacodyn, 267, 131-140 (1984); C. Vander Wende et al., Fed. Proc., 15, 494 (1956); Koster et al., Fed. Proc., 18, 412 (1959); and Witken et al., J. Pharmacol. exp. Ther., 133, 400-408 (1961).] Chemicals which may be used to induce this pain include phenylbenzoquinone (PBQ) and acetic acid. As a result of the chemical irritation to the animal, a characteristic stretching and writhing of the animal (dorsiflexion of the animal's back, extension of its hindlimbs and the strong contraction of its abdominal musculature) will generally occur. […] Drugs which reduce the number of writhes of the animal appear to restore the normal nociceptive threshold of the animal.
Charles River male albino mice, weighing 20 to 30 grams were used in this assay.
Thirty minutes after subcutaneous or intragastric administration to ten mice of either 10 mg or 30 mg per kilogram of body weight of a compound of the present invention ("test compound"), […] of body weight of a 0.025% w/v solution of PBQ was injected intraperitoneally into each mouse. Ten mice which were given saline in place of a test compound of the invention were used as a control group.
Five minutes later, each mouse was individually placed into a glass beaker for observation, and the number of writhes occurring during the following ten-minute period was counted.
A test compound was considered to have produced analgesia in a mouse if, in accordance with the conditions set forth above, and under the test criteria employed for this assay, after the administration of 10 or 30 mg per kilogram of body weight of a compound of the present invention to the mouse, the number of writhes elicited by a mouse injected with PBQ was equal to, or less than, one-half the median number of writhes recorded for the saline-treated control group of mice that day, as described by Taber in "Predictive Value of Analgesic Assays in Mice and Rats," Advances in Biochemical Psychopharmacology, 8, 191 (1974).
The results for the particular compounds of the present invention analyzed in this assay, and discussed in the examples identified below which correspond thereto, are presented in Table I below.
The standard initial screening doses of a test compound employed in this assay were 10 and/or […] of body weight for both routes of administration. If these initial screening doses of the test compound produced analgesia in seven of ten mice, then the effect of additional doses of the test compound on the writhing response was evaluated, and then the ED50 dose was generally calculated. (The slopes of the dose-response curves for all test compounds analyzed were compared as described by Tallarida and Murray, Manual of Pharmacologic Calculations, Page 11 (Springer Verlag, N.Y., 1981)).

[2] = test system: isolated smooth muscle preparations; conditions: cited from earlier work
[3] = test system: micturition of urethane-anesthetized rats; conditions: cited from earlier work
[4] = po, mouse, intragastric, read-out: PBQ writhing assay ED50, I.G.
[5] = Mus musculus, po, read-out: PBQ writhing assay ED50, I.G.

SMILES | Kb [1] [µM] | PGE antagonism in guinea pig ileum, activity [1] | rank order of potency in the Writhing Assay (mice) | further results
O=C(Cc1cccs1)NCCC(=O)NNC(=O)N1Cc2ccccc2Oc2ccc(Cl)cc21 [Example 5, 8-chlorodibenz[b,f][1,4]oxazepine-10(11H)-carboxylic acid, 2-[1-oxo-3-[(2-thienylacetyl)amino]propyl]hydrazide] | 0.0794 | Active | – | effectiveness as prostaglandin E2 antagonist relative to prostaglandin antagonists reported in the literature ([1]; compared with literature prostaglandin E2 antagonists): more than three to four times more effective
CC(C)(C)OC(=O)NCCC(=O)NNC(=O)N1Cc2ccccc2Oc2ccc(Cl)cc21 [Example 7, 8-chlorodibenz[b,f][1,4]oxazepine-10(11H)-carboxylic acid, 2-[3-[[(1,1-dimethylethoxy)carbonyl]amino]-1-oxopropyl]hydrazide] | 2.51 | Active | – | –
O=C(CCNC(=O)Nc1ccc(C(F)(F)F)cc1)NNC(=O)N1Cc2ccccc2Oc2ccc(Cl)cc21 [Example 10, 8-chlorodibenz[b,f][1,4]oxazepine-10(11H)-carboxylic acid, 2-[1-oxo-3-[[[[(4-trifluoromethyl)phenyl]amino]carbonyl]amino]propyl]hydrazide] | 0.1 | Active | – | –
CS(=O)(=O)NCCC(=O)NNC(=O)N1Cc2ccccc2Oc2ccc(Cl)cc21 [Example 11, 8-chlorodibenz[b,f][1,4]oxazepine-10(11H)-carboxylic acid, 2-[3-[(methylsulfonyl)amino]-1-oxopropyl]hydrazide] | 0.794 | Active | Example 20>Example 27>Example 12>Example 11>Example 28 | ED50 (mice; [4]): 9.7 mg/kg; ED50 (mice; sc, mouse, subcutaneous, read-out: PBQ writhing assay ED50, S.C.): 3 mg/kg
CNC(=O)NCCC(=O)NNC(=O)N1Cc2ccccc2Oc2ccc(Cl)cc21 [Example 12, 8-chlorodibenz[b,f][1,4]oxazepine-10(11H)-carboxylic acid, 2-[3-[[(methylamino)carbonyl]amino]-1-oxopropyl]hydrazide] | – | – | Example 20>Example 27>Example 12>Example 11>Example 28 | ED50 (mice; [4]): 8.4 mg/kg
CCOP(=O)(CC(=O)NNC(=O)N1Cc2ccccc2Oc2ccc(Cl)cc21)OCC [Example 20, 8-chlorodibenz[b,f][1,4]oxazepine-10(11H)-carboxylic acid, 2-[(diethoxyphosphinyl)acetyl]hydrazide] | 0.794 | Active | Example 20>Example 27>Example 12>Example 11>Example 28; also recorded: the most potent compound of the invention tested | ED50 (mice; [5]): 8.2 mg/kg; ED50 (mice; Mus musculus, sc, read-out: PBQ writhing assay ED50, S.C.): 7.1 mg/kg
O=C(CCNS(=O)(=O)c1ccccc1)NNC(=O)N1Cc2ccccc2Oc2ccc(Cl)cc21 [Example 24, 8-chlorodibenz[b,f][1,4]oxazepine-10(11H)-carboxylic acid, 2-[1-oxo-3-[(phenylsulfonyl)amino]propyl]hydrazide] | 2 | Active | – | –
CCOP(=O)(O)CC(=O)NNC(=O)N1Cc2ccccc2Oc2ccc(Cl)cc21 [Example 27, 8-chlorodibenz[b,f][1,4]oxazepine-10(11H)-carboxylic acid, 2-[(ethoxyhydroxyphosphinyl)acetyl]hydrazide] | – | – | Example 20>Example 27>Example 12>Example 11>Example 28 | ED50 (mice; [5]): 8.3 mg/kg
O=C(CP(=O)(O)O)NNC(=O)N1Cc2ccccc2Oc2ccc(Cl)cc21 [Example 28, 8-chlorodibenz[b,f][1,4]oxazepine-10(11H)-carboxylic acid, 2-(phosphonoacetyl)hydrazide] | – | – | Example 20>Example 27>Example 12>Example 11>Example 28 | ED50 (mice; [4]): 11.2 mg/kg
O=C(Cc1ccccc1)NNC(=O)N1Cc2ccccc2Oc2ccc(Cl)cc21 [SC-18637] | – | – | – | inhibition of stimulant actions of prostaglandins [2]: inhibit the stimulant actions of prostaglandins on isolated smooth muscle preparations
CC(=O)NNC(=O)N1Cc2ccccc2Oc2ccc(Cl)cc21 [SC-19220] | – | – | – | bladder capacity [3]: increased the bladder capacity; voiding efficiency of micturition [3]: reduced the voiding efficiency of micturition; inhibition of stimulant actions of prostaglandins [2]: inhibit the stimulant actions of prostaglandins on isolated smooth muscle preparations
